Reference: PMC10122656, “Siglec-6 mediates the uptake of extracellular vesicles through a noncanonical glycolipid binding pocket” (Nature Communications, 2023)
Where “and” joins values, the source holds several entries; their conditions need not be identical. Equal values may be shown once.

Tests used:
Assay in all cases: Cell assay (liposome/EV binding, flow cytometry)
Format in all cases: cell-based
CD22 WT CHO cells = target: T1, CD22 WT CHO cells (Homo sapiens, UniProt P20273); conditions: 3 mol% ganglioside liposomes, replicates
T1 construct: expressed in transfected cells
T1 sequence (P20273 20-847): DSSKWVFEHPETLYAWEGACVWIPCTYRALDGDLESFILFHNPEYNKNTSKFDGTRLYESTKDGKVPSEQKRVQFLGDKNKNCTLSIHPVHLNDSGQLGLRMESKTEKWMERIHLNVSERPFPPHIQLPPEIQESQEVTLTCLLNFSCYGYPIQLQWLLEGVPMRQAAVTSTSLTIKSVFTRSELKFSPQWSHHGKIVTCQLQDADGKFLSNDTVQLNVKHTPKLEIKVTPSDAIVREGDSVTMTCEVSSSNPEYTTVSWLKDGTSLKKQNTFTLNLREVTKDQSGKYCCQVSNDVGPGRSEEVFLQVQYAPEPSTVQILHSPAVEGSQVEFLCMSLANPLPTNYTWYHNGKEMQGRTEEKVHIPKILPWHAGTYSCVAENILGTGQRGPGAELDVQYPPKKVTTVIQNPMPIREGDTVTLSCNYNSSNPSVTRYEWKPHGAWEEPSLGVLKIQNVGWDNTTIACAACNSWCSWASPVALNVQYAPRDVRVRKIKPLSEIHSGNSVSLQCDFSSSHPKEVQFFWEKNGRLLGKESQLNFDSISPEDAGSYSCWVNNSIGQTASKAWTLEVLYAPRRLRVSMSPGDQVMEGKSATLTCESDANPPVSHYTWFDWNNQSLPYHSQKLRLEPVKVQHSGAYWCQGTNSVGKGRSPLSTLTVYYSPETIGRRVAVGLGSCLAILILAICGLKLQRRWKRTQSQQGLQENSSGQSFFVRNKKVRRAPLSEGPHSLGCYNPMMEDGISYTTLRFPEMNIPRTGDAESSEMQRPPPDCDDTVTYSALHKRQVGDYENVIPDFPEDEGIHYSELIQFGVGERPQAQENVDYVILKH
In short: (§1)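 Cells are incubated for 30 min at 37 °C with ligand-displaying liposomes (50 µM lipid) or EVs (50 µg/mL protein) in DMEM F12 containing 5% FBS. After washing and anti-Siglec staining on ice, liposome binding is quantified by flow cytometry within the Siglec-positive population.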

Siglec-1 R116A CHO cells = target: T2, Siglec-1 R116A CHO cells (Homo sapiens, UniProt Q9BZZ2, R116A); conditions: Sig-1 R116A; 3 mol% ganglioside liposomes; replicates
T2 construct: expressed in transfected cells
T2 sequence (Q9BZZ2 20-1709 R116A): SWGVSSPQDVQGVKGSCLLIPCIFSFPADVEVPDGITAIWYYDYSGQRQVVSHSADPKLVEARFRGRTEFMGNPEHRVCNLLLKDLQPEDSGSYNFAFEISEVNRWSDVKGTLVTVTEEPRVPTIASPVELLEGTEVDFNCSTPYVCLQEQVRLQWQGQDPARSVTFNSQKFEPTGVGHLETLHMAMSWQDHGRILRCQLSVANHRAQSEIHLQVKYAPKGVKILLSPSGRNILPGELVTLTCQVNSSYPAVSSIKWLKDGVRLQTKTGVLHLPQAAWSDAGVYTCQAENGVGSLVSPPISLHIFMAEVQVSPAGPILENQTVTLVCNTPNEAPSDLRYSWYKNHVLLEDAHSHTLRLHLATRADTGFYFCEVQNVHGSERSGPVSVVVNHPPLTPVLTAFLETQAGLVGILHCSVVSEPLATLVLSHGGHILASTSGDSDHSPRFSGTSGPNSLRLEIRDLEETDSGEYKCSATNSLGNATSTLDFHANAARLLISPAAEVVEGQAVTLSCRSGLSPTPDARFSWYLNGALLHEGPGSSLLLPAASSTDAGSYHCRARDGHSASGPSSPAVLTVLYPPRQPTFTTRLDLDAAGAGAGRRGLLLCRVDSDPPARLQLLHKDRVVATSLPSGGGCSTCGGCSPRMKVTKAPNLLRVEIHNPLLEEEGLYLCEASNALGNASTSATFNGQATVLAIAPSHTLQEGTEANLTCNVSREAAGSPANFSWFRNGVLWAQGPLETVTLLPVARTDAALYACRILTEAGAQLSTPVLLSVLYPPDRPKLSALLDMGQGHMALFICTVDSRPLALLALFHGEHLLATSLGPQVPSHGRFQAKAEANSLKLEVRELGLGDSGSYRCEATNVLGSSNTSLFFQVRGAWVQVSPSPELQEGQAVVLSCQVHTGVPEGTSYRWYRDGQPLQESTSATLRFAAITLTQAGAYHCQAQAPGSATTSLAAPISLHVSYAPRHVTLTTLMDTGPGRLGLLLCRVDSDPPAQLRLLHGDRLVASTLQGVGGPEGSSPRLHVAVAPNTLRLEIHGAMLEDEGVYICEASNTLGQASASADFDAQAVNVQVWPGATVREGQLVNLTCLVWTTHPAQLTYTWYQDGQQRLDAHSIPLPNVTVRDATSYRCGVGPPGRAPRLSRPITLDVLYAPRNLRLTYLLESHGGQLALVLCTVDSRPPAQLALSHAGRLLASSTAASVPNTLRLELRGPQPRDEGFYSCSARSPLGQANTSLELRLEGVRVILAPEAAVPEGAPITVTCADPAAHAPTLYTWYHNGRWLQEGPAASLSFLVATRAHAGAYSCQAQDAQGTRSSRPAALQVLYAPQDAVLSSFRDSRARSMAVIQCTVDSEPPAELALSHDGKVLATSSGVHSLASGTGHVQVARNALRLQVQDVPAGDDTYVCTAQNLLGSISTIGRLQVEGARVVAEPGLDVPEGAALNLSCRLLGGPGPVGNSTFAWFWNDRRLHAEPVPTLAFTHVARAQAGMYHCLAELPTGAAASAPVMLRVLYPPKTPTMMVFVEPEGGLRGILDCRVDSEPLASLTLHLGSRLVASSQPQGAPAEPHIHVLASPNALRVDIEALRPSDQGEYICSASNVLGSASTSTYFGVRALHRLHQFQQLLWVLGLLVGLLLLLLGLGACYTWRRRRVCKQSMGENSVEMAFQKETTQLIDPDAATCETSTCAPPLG
In short: as §1

[1] = target: T3, Siglec-10 R119A CHO cells (Homo sapiens, UniProt Q96LC7, R119A); conditions: Sig-10 R119A; 3 mol% ganglioside liposomes; replicates
T3 construct: expressed in transfected cells
T3 sequence (Q96LC7 17-697 R119A): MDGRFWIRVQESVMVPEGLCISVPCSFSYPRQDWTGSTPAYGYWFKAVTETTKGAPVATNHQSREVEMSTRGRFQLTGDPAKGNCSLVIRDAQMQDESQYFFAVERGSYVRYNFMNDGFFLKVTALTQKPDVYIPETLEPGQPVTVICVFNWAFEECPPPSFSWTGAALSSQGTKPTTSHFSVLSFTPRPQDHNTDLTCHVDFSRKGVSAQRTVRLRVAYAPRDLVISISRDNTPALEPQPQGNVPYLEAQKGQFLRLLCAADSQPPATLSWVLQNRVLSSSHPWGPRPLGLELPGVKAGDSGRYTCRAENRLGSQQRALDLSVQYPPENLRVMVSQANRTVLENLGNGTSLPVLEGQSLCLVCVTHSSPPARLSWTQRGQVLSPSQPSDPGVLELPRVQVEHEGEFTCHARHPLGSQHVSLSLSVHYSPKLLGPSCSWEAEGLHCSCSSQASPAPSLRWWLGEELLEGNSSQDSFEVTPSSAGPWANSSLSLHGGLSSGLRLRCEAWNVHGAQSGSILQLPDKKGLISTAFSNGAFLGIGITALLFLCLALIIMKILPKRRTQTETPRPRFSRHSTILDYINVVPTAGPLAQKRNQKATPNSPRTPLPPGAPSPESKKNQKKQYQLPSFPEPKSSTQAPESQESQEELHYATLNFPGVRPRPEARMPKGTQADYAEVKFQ
In short: (§2)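 Extruded PEGylated DSPC/cholesterol liposomes (100 nm filter; 130 ± 35 nm) bearing Siglec ligand and AF647 lipids. Cells + 50 µM liposome or 50 µg/mL EV, DMEM F12/5% FBS, 37 °C, 30 min; washed; anti-Siglec 1:250, ice 30 min; flow, Siglec+ gate.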

[2] = target: T4, Siglec-15 R143A CHO cells (Homo sapiens, UniProt Q6ZMC9, K274L/R143A); conditions: Sig-15 R143A; 3 mol% ganglioside liposomes; replicates
T4 construct: expressed in transfected cells
T4 sequence (Q6ZMC9 20-328 R143A/K274L): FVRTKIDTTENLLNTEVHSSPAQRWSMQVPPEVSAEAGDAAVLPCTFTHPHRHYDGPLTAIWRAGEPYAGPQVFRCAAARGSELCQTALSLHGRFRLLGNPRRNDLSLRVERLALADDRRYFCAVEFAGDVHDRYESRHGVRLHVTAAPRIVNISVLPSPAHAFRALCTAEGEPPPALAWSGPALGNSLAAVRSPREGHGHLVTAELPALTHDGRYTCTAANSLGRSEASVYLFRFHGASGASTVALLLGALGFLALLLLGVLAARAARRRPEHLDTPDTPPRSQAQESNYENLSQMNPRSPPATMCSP
In short: as §2

Substance | log10(MFI AF647) of GLL relative to log10(MFI AF647) of the same GLL against UT CHO cells (Fig. 2a) (CD22 WT CHO cells) | log10(MFI AF647) of GLL relative to log10(MFI AF647) of the same GLL against UT CHO cells (Fig. 2a) (Siglec-1 R116A CHO cells) | log10(MFI AF647) of GLL relative to log10(MFI AF647) of the same GLL against UT CHO cells (Fig. 2a) [1] | log10(MFI AF647) of GLL relative to log10(MFI AF647) of the same GLL against UT CHO cells (Fig. 2a) [2]
GD1a | 0.06 (2×) and 0.03 and 0.05 | -0.06 (2×) and -0.02 and -0.08 | 0.11 and 0.12 and 0.1 (2×) | -0.02 and -0.07 and -0.06 and -0.05
GD1b | -0.04 and -0.05 and -0.06 (2×) | -0.26 (2×) and -0.25 and -0.21 | -0.02 and -0.04 and -0.01 and 0 | -0.12 and -0.14 (3×)
GD3 | 0.09 and 0.07 and 0.1 (2×) | -0.04 (2×) and -0.02 and 0.05 | 0.12 (2×) and 0.09 and 0.1 | 0.02 and -0.02 and 0 and -0.01
GM1 | -0.03 (2×) and -0.04 and -0.06 | -0.21 and -0.24 and -0.22 and -0.2 | -0.02 and 0.03 and 0.04 and 0.09 | -0.08 and -0.12 (2×) and -0.11
GM2 | 0.01 (3×) and 0 | -0.08 and -0.1 (2×) and -0.07 | 0.05 and 0.07 (2×) and 0.06 | -0.02 (2×) and -0.04 and -0.03
GM3 | -0.16 and -0.15 (3×) | -0.19 and -0.23 and -0.18 and -0.21 | -0.12 (2×) and -0.13 (2×) | -0.11 (2×) and -0.12 (2×)
GM4 | 0.05 (2×) and 0.06 and 0.07 | -0.09 and -0.12 and -0.06 and -0.1 | 0 and -0.02 and 0.02 and 0.01 | -0.08 and -0.09 and -0.11 and -0.1
GQ1b | -0.05 (3×) and -0.04 | -0.29 and -0.27 and -0.24 and -0.3 | -0.06 (2×) and -0.07 and -0.05 | -0.11 (2×) and -0.12 and -0.08
GT1b | 0.06 (2×) and 0.04 and 0.05 | -0.14 (2×) and -0.15 and -0.1 | 0.05 and 0.03 (2×) and 0 | -0.03 and -0.06 and -0.05 (2×)
